Source: article PMC5698704 (Chemmedchem, 2017)

How the values were obtained:
CDK9/CycT1 = CDK9/CycT1 (Homo sapiens, UniProt P50750); assay: CDK9/CycT1 kinase assay; assay type: biochemical
CDK2/CycE = CDK2/CycE kinase assay; assay type: biochemical, human; details: ratio of IC50 values CDK2/CDK9, in-house assays
HeLa cells = assay: Proliferation assay HeLa; assay type: cell-based; details: Homo sapiens, 96 h, read-out: HeLa IC50
[1] = Metabolic stability in human liver microsomes; assay type: in vitro ADME
[2] = Metabolic stability in rat liver microsomes; assay type: in vitro ADME; details: rat, liver microsomes
[3] = Metabolic stability in mouse liver microsomes; assay type: in vitro ADME
MOLM‐13 cells = assay: Proliferation assay MOLM‐13; assay type: cell-based; details: Homo sapiens, MOLM-13, 96 h, read-out: MOLM‐13 IC50
MOLM‐13 human AML model = assay: MOLM‐13 human AML xenograft model in mice; assay type: in vivo, mouse; details: for T/C ratio: end of the experiment

CDK9/CycT1, sequence (P50750 whole entry): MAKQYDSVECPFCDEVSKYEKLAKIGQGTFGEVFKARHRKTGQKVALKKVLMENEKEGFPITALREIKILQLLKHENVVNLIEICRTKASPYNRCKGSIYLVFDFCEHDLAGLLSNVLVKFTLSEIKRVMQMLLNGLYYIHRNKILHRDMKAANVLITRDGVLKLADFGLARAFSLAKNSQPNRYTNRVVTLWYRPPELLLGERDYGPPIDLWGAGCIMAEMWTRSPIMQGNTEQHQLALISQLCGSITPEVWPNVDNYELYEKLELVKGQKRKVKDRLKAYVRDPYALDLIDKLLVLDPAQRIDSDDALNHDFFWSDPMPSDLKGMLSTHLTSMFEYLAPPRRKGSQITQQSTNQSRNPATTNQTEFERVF
CDK9/CycT1, sequence (O60563 whole entry partner): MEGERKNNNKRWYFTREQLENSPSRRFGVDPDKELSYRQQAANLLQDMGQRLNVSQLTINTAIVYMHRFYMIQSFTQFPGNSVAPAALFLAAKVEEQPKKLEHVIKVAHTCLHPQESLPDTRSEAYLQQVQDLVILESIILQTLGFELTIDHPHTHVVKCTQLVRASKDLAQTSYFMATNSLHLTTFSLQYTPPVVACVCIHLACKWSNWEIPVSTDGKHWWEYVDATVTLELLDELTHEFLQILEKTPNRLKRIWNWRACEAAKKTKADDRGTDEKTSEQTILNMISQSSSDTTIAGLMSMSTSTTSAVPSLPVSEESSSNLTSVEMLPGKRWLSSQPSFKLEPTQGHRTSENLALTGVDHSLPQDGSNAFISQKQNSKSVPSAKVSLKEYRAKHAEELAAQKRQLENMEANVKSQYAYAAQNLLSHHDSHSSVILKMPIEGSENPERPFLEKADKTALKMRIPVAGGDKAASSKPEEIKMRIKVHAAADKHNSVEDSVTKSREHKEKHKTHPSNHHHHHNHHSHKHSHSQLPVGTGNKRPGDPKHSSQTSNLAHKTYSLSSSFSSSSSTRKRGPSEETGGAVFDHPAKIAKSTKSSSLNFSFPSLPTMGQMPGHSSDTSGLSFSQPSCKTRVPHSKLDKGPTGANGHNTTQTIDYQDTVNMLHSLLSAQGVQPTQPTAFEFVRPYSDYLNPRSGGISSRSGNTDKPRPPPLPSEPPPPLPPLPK

SMILES	IC50 (CDK9/CycT1) [nM]	Selectivity vs. CDK2, ratio of IC50 values (CDK2/CycE)	IC50 (HeLa cells) [nM]	further results
COc1cc(F)ccc1-c1ncnc(Nc2cccc(C(C)(C)S(C)(=O)=O)c2)n1 [Compound 11, 4‐(4‐Fluoro‐2‐methoxyphenyl)‐N‐{3‐[2‐(methylsulfonyl)propan‐2‐yl]phenyl}‐1,3,5‐triazin‐2‐amine]	1000	>20		
COc1cnccc1-c1ncnc(Nc2cccc(CS(N)(=O)=O)c2)n1 [Compound 16, 1‐(3‐{[4‐(3‐Methoxypyridin‐4‐yl)‐1,3,5‐triazin‐2‐yl]amino}phenyl)methanesulfonamide]	1800	14		
NS(=O)(=O)Cc1cccc(Nc2ncnc(-c3ccc(F)cc3F)n2)c1 [Compound 18, 1‐(3‐{[4‐(2,4‐Difluorophenyl)‐1,3,5‐triazin‐2‐yl]amino}phenyl)methanesulfonamide]	270	16	> 3000	
COc1cc(F)ccc1-c1ncnc(Nc2cccc(C(C)S(C)(=O)=O)c2)n1 (racemic) [Compound 10, (rac)‐4‐(4‐Fluoro‐2‐methoxyphenyl)‐N‐{3‐[1‐(methylsulfonyl)ethyl]phenyl}‐1,3,5‐triazin‐2‐amine]	85	21	3200	
COc1cc(F)ccc1-c1ncnc(Nc2cccc(CS(=O)(=O)C(C)(C)C)c2)n1 [Compound 9, N ‐{3‐[(tertButylsulfonyl)methyl]phenyl}‐4‐(4‐fluoro‐2‐methoxyphenyl)‐1,3,5‐triazin‐2‐amine]		43	2900	
COc1cc(F)ccc1-c1ncnc(Nc2cccc(CS(C)(=O)=O)c2)n1 [Compound 4, 4‐(4‐Fluoro‐2‐methoxyphenyl)‐N‐{3‐[(methylsulfonyl)methyl]phenyl}‐1,3,5‐triazin‐2‐amine]				IC50 (MOLM‐13 cells): 130 nM
NS(=O)(=O)Cc1cccc(Nc2ncnc(-c3ccc(F)cc3O)n2)c1 [Compound 17, 1‐(3‐{[4‐(4‐Fluoro‐2‐hydroxyphenyl)‐1,3,5‐triazin‐2‐yl]amino}phenyl)methanesulfonamide]	130	6	2900	
CC(=O)Nc1cc(F)ccc1-c1ncnc(Nc2cccc(CS(N)(=O)=O)c2)n1 [Compound 21, N ‐[5‐Fluoro‐2‐(4‐{[3‐(sulfamoylmethyl)phenyl]amino}‐1,3,5‐triazin‐2‐yl)phenyl]acetamide]		<1	3000	
NS(=O)(=O)Cc1cccc(Nc2ncnc(-c3ccc(F)cc3C(F)(F)F)n2)c1 [Compound 22, 1‐[3‐({4‐[4‐Fluoro‐2‐(trifluoromethyl)phenyl]‐1,3,5‐triazin‐2‐yl}amino)phenyl]methanesulfonamide]		1		
COc1cc(F)ccc1-c1ncnc(Nc2cccc(C(F)(F)S(C)(=O)=O)c2)n1 [Compound 13, N ‐{3‐[Difluoro(methylsulfonyl)methyl]phenyl}‐4‐(4‐fluoro‐2‐methoxyphenyl)‐1,3,5‐triazin‐2‐amine]	67	19	4200	
COCc1ccccc1-c1ncnc(Nc2cccc(CS(N)(=O)=O)c2)n1 [Compound 20, 1‐[3‐({4‐[2‐(Methoxymethyl)phenyl]‐1,3,5‐triazin‐2‐yl}amino)phenyl]methanesulfonamide]	1700	>11		
NS(=O)(=O)Cc1cccc(Nc2ncnc(-c3ccccc3OC(F)(F)F)n2)c1 [Compound 19, 1‐[3‐({4‐[2‐(Trifluoromethoxy)phenyl]‐1,3,5‐triazin‐2‐yl}amino)phenyl]methanesulfonamide]	620	20	> 3000	
COc1cc(F)ccc1-c1ncnc(Nc2cccc(CS(N)(=O)=O)c2)n1.Cl [BAY‐958 hydrochloride, 1‐(3‐{[4‐(4‐Fluoro‐2‐methoxyphenyl)‐1,3,5‐triazin‐2‐yl]amino}phenyl)methanesulfonamide hydrochloride]				T/C ratio (MOLM‐13 human AML model; 30 mg kg^−1 daily oral): 0.16; T/C ratio (MOLM‐13 human AML model; 40 mg kg^−1 daily oral): 0.12; body weight change (MOLM‐13 human AML model; 30 or 40 mg kg^−1 daily oral): less than 10%; fatal toxicities (MOLM‐13 human AML model; 30 or 40 mg kg^−1 daily oral): no fatal toxicities

Further molecules by falling IC50 (CDK9/CycT1), results first:

IC50 (CDK9/CycT1) [nM]	Selectivity vs. CDK2, ratio of IC50 values (CDK2/CycE)	IC50 (HeLa cells) [nM]	SMILES	further results
51	<1	11000	COc1cc(F)ccc1-c1ncnc(Nc2ccc3c(c2)CS(=O)(=O)C3)n1 [Compound 8, N‐( 2,2‐Dioxido‐1,3‐dihydro‐2‐benzothien‐5‐yl)‐4‐(4‐fluoro‐2‐methoxyphenyl)‐1,3,5‐triazin‐2‐amine]	
49	12	2200	COc1cc(F)ccc1-c1ncnc(Nc2cccc(CCS(C)(=O)=O)c2)n1 [Compound 6, 4‐(4‐Fluoro‐2‐methoxyphenyl)‐N‐{3‐[2‐(methylsulfonyl)ethyl]phenyl}‐1,3,5‐triazin‐2‐amine]	
32	19	1340	COc1cc(F)ccc1-c1ncnc(Nc2cccc(S(C)(=O)=O)c2)n1 [Compound 5, 4‐(4‐Fluoro‐2‐methoxyphenyl)‐N‐[3‐(methylsulfonyl)phenyl]‐1,3,5‐triazin‐2‐amine]	
27	108	3800	COc1cc(Cl)ccc1-c1ncnc(Nc2cccc(CS(N)(=O)=O)c2)n1 [Compound 15, 1‐(3‐{[4‐(4‐Chloro‐2‐methoxyphenyl)‐1,3,5‐triazin‐2‐yl]amino}phenyl)methanesulfonamide]	
23	62	1600	COc1ccccc1-c1ncnc(Nc2cccc(CS(N)(=O)=O)c2)n1 [Compound 14, 1‐(3‐{[4‐(2‐Methoxyphenyl)‐1,3,5‐triazin‐2‐yl]amino}phenyl)methanesulfonamide]	
20	13	890	COc1cc(F)ccc1-c1ncnc(Nc2cccc(C(F)S(C)(=O)=O)c2)n1 (racemic) [Compound 12, (rac)‐4‐(4‐Fluoro‐2‐methoxyphenyl)‐N‐{3‐[fluoro(methylsulfonyl)methyl]phenyl}‐1,3,5‐triazin‐2‐amine]	
7	22	550	COc1cc(F)ccc1-c1ncnc(Nc2ccc3c(c2)S(=O)(=O)CC3)n1 [Compound 7, N‐( 1,1‐Dioxido‐2,3‐dihydro‐1‐benzothien‐6‐yl)‐4‐(4‐fluoro‐2‐methoxyphenyl)‐1,3,5‐triazin‐2‐amine]	
4	34	100	NS(=O)(=O)Cc1cccc(Nc2ncnc(-c3ccc(F)cc3OCc3ccccc3)n2)c1 [Compound 23, 1‐[3‐({4‐[2‐(Benzyloxy)‐4‐fluorophenyl]‐1,3,5‐triazin‐2‐yl}amino)phenyl]methanesulfonamide]	recovery at 60 min [1]: 0%; recovery at 60 min [2]: 0%; recovery at 60 min [3]: 0.2%
